{"source": "patent US20250352477A1", "about": "“FORMULATIONS AND ORAL DOSAGE FORMS OF LIPOPHILIC AGENTS” (CANNBIOREX PHARMA LTD, priority 2022, published 2025)", "experiment": "Pharmacokinetic study of LPNF-CBD formulations in freely moving rat model", "type": "in vivo", "conditions": "CBD 15 mg/kg; for half-life: read-out: Elimination half-life (converted)", "method": "For pharmacokinetic analysis of LPNF-CBD powders, male Wistar rats were tested in […] groups: a control group received LPNF-CBD prepared as in EXAMPLE 2 (N=5) with CBD concentration 2 mg/mL, administered by oral gavage; experimental groups received LPNF-CBD Polypore or Neusilin US2 powders dispersed in water (N=4 and N=5, respectively) with LPNF-CBD concentration of 20 mg/ml, administered by oral gavage; control groups received CBD in propylene glycol:ethanol:water (4.5:4.5:1 v/v) with CBD concentration of 3 mg/mL, administered by oral gavage or intravenously (N=5 and N=3, respectively). In all groups, the administered CBD dose was 15 mg/kg. For pharmacokinetic (PK) studies, blood samples (0.35 mL) were taken at 0, 0.3 h, 0.6 h, 1 h, 1.5 h, 2 h, 3 h, 4 h and 6 h time points. Plasma was separated by centrifugation and stored frozen until LCMS analysis.\nPK study was conducted in the freely moving rat model (in-vivo) in five groups of animals receiving: (1) CBD in propylene glycol:ethanol:water solution; (2) LPNF-CBD, (3) LPNF-CBD Polypore and (4) LPNF-CBD Neusilin powders dispersed in water; all administered by oral gavage; and (5) CBD in propylene glycol:ethanol:water solution administered IV.", "key": {"[1]": {"conditions": "male, Wistar, in vivo, oral gavage"}}, "note": "Where two headings read alike, the source gives them in different places."}
{"smiles": "C=C(C)[C@@H]1CCC(C)=C[C@H]1c1c(O)cc(CCCCC)cc1O", "note": "[CBD, Cannabidiol]", "values": [{"measurement": "Liner terminal slope", "setting": "IV", "result": 0.2, "unit": "h⁻¹"}, {"measurement": "half-life", "setting": "male, Wistar, in vivo, IV", "result": 4.1, "unit": "h"}, {"measurement": "AUC", "setting": "[1]", "result": 158, "unit": "ng·h/mL"}, {"measurement": "half-life", "setting": "[1]", "result": 3.2, "unit": "h"}, {"measurement": "Liner terminal slope", "setting": "oral gavage", "result": 0.2, "unit": "h⁻¹"}]}
